Results from patent US7094781B2, “Sulfamides and their use as endothelin receptor antagonists” (Actelion Pharmaceuticals Ltd., priority 2000, dated 2006).
Like-named read-outs stand apart in the source and are kept apart here.

How the values were obtained:
[1] = biological target: T1, human recombinant ETA receptor (Homo sapiens, UniProt P25101); assay: Inhibition of [125I]ET-1 binding to membranes from CHO cells carrying human ETA receptors
T1 construct: expressed in transfected cells; host or cells: CHO cells (microsomal membranes)
T1 sequence (P25101 21-427): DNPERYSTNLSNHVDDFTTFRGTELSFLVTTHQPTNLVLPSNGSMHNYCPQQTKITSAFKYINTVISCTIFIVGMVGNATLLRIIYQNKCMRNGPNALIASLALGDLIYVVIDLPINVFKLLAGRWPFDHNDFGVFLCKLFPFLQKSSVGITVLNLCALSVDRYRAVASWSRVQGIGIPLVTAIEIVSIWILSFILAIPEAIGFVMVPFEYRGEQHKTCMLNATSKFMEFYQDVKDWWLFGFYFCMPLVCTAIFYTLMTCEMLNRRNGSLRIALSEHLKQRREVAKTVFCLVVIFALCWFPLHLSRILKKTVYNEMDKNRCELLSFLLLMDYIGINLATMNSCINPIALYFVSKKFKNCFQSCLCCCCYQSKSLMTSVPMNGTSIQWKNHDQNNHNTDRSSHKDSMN

[2] = biological target: T2, human recombinant ETB receptor (Homo sapiens, UniProt P24530); assay: Inhibition of [125I]ET-1 binding to membranes from CHO cells carrying human ETB receptors
T2 construct: expressed in transfected cells; host or cells: CHO cells (microsomal membranes)
T2 sequence (P24530 27-442): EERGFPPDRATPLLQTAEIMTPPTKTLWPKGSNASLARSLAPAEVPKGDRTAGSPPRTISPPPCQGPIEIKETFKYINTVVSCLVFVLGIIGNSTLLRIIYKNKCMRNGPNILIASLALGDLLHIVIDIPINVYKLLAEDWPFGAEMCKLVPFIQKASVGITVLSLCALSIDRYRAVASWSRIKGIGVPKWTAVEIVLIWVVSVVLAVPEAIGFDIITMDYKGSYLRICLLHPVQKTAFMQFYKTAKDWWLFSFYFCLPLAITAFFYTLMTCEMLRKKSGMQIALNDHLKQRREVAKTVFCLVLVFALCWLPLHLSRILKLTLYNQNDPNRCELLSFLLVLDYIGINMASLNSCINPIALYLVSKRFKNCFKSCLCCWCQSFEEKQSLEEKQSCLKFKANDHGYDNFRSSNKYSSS

[3] = biological target: T3, ETA receptors (rat aortic rings) (Rattus norvegicus, UniProt P26684); assay: Inhibition of endothelin-1-induced contraction on isolated rat aortic rings
T3 construct: The thoracic aorta or trachea were excised, dissected and cut in 3–5 mm rings; from tissue; host or cells: thoracic aorta rings of adult Wistar rats, endothelium removed
T3 sequence (P26684 21-426): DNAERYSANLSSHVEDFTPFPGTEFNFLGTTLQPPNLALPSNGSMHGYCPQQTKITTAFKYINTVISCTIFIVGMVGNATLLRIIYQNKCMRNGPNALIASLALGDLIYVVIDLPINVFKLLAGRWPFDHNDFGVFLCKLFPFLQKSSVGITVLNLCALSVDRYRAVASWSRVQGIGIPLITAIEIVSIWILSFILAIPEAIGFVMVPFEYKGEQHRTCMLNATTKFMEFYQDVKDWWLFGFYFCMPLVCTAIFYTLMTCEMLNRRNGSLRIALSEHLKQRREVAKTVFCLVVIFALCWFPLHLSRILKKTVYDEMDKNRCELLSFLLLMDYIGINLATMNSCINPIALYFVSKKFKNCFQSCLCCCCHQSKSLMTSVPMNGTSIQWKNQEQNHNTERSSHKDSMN

[4] = read-out: pA2 value ETA (converted)

Row | Structure (SMILES) | IC50 [1] | IC50 [2] | Kb [3, 4] | Kb [3]
1 | COc1ccc(CNS(=O)(=O)Nc2nc(-c3ccncc3)nc(OC)c2Oc2ccccc2OC)cc1 [Example 161] | 6.2 nM | > 1000 nM | – | 513 nM
2 | O=S(=O)(NCc1ccccc1)Nc1ncnc(OCCOc2ncc(Br)cn2)c1-c1ccc(Br)cc1 [Example 100] | 0.76 nM | – | 3.63 nM | –
3 | Cc1ccc(-c2c(NS(=O)(=O)NCc3ccccc3)nc(-c3ccncc3)nc2OCCOc2ncc(Br)cn2)cc1 [Example 32] | 3.5 nM | 864 nM | 1.78 nM | –
4 | COc1ccccc1Oc1c(NS(=O)(=O)NCc2ccccc2)nc(-c2ncccn2)nc1OCCOc1ncc(Br)cn1 [Example 37] | 16 nM | – | 14.8 nM | –
5 | O=S(=O)(NCc1ccccc1)Nc1ncnc(OCCOc2ncc(Br)cn2)c1-c1ccc(Cl)cc1 [Example 14, benzyl sulfamic acid-[6-[2-(5-bromo-pyrimidin-2-yloxy)-ethoxy]-5-(4-chlorophenyl)-4-pyrimidinyl]-amide] | 5.6 nM | – | 3.98 nM | –
6 | CCNS(=O)(=O)Nc1nc(-c2ccncc2)nc(OC)c1Oc1ccccc1OC [Example 7, ethyl sulfamic acid-[6-methoxy-5-(o-methoxy-phenoxy)-2-(4-pyridyl)-pyrimidin-4-yl]-amide] | 1240 nM | 9470 nM | – | –
7 | COc1ccccc1Oc1c(NS(=O)(=O)NCc2ccccc2)nc(-c2ncccn2)nc1OCCOc1ncccn1 [Example 39] | 32.7 nM | 524 nM | – | –
8 | O=S(=O)(NCc1ccccc1)Nc1nc(-c2ccncc2)nc(OCCOc2ncc(Br)cn2)c1-c1ccc(Cl)cc1 [Example 109] | 1.94 nM | > 1000 nM | – | –
9 | COc1cnc(OCCOc2nc(-c3ccncc3)nc(NS(=O)(=O)NCc3ccccc3)c2-c2ccc(Cl)cc2)nc1 [Example 111] | 12.3 nM | 3750 nM | – | –
10 | COc1cnc(OCCOc2nc(-c3ncccn3)nc(NS(=O)(=O)NCc3ccc(Cl)cc3)c2Oc2ccccc2OC)nc1 [Example 55] | 5.2 nM | 80 nM | – | –
11 | COc1ccccc1Oc1c(NS(=O)(=O)NCc2ccccc2)nc(-c2ncccn2)nc1OCCOC(=O)Nc1cnccn1 [Example 42] | 3.5 nM | 146 nM | – | –
12 | COc1ccccc1Oc1c(NS(=O)(=O)NCc2ccccc2)nc(C2CC2)nc1OCCOc1ncc(SC)cn1 [Example 90] | 7.4 nM | 433 nM | – | –
13 | COc1ccccc1Oc1c(NS(=O)(=O)Nc2ccc(C)cn2)nc(-c2ccncc2)nc1OC [Example 8, 5-methyl-pyridine-2-sulfamic acid-[6-methoxy-5-(o-methoxy-phenoxy)-2-(4-pyridyl)-4-pyrimidinyl]-amide] | 1160 nM | > 10000 nM | – | –
14 | C=CCOc1nc(-c2ccncc2)nc(NS(=O)(=O)Nc2ccc(C(C)C)cc2)c1Oc1ccccc1OC [Example 2, 4-i-propyl-phenyl sulfamic acid-[6-allyloxy-5-(o-methoxyphenoxy)-2-(4-pyridyl)-pyrimidin-4-yl]-amide] | 2190 nM | 8740 nM | – | –
15 | COc1ccccc1Oc1c(NS(=O)(=O)NCc2ccc(Cl)cc2)nc(-c2ncccn2)nc1OCCOc1ncc(Br)cn1 [Example 56] | 6.9 nM | 164 nM | – | –
16 | COc1ccccc1Oc1c(NS(=O)(=O)NCc2ccco2)nc(-c2ncccn2)nc1OCCOc1ncc(Br)cn1 [Example 60] | 3.4 nM | 232 nM | – | –
17 | COc1ccccc1Oc1c(NS(=O)(=O)Nc2ccc(C(C)C)cc2)nc(-c2ccncc2)nc1OC [Example 1, 4-i-propyl-phenyl sulfamic acid-[6-methoxy-5-(o-methoxyphenoxy)-2-(4-pyridyl)-pyrimidin-4-yl]-amide] | 721 nM | 8430 nM | – | –
18 | COc1ccccc1Oc1c(NS(=O)(=O)NCc2ccccc2)nc(-c2ncccn2)nc1OCCOC(=O)Nc1ccccc1 [Example 43] | 6.8 nM | 214 nM | – | –
19 | O=S(=O)(NCC1CC1)Nc1ncnc(OCCOc2ncc(Br)cn2)c1-c1ccc(Br)cc1 [Example 107] | 0.25 nM | 96 nM | – | –
20 | O=S(=O)(NCc1cccs1)Nc1ncnc(OCCOc2ccc(C(F)(F)F)cn2)c1-c1ccc(Cl)cc1 [Example 22] | 12 nM | 434 nM | – | –
21 | COc1ccccc1Oc1c(NS(=O)(=O)NCc2ccc(Cl)cc2)nc(-c2ncccn2)nc1OCCOC(=O)Nc1ccccn1 [Example 57] | 4.9 nM | 35.8 nM | – | –
22 | O=S(=O)(NCC1CC1)Nc1ncnc(OCCOc2ncc(Br)cn2)c1-c1ccc(Cl)cc1 [Example 112] | 0.52 nM | 257 nM | – | –
23 | COc1ccccc1Oc1c(NS(=O)(=O)Nc2ccc(C(C)C)cc2)nc(-c2ccncc2)nc1OCCO [Example 3, 4-i-propyl-phenyl sulfamic acid-[6-(2-hydroxy-ethoxy)-5-(o-methoxyphenoxy)-2-(4-pyridyl)-pyrimidin-4-yl]-amide] | 1380 nM | 744 nM | – | –

Second part, led by results:

Row | IC50 [1] | IC50 [2] | Kb [3, 4] | Structure (SMILES) | Kb [3]
24 | 2.9 nM | 124 nM | – | COc1ccccc1Oc1c(NS(=O)(=O)NCC2CC2)nc(-c2ccncc2)nc1OCCOc1ncc(Br)cn1 [Example 123] | –
25 | 1.32 nM | 347 nM | – | COc1ccc(Cl)c(Oc2c(NS(=O)(=O)NCc3ccccc3)ncnc2OCCOc2ncc(SC)cn2)c1 [Example 213, Benzylsulfamic acid [6-[2-(5-methylsulfanyl-pyrimidin-2-yloxy)-ethoxy]-5-(2-chloro-5-methoxy-phenoxy)-pyrimidin-4-yl]-amide] | –
26 | 2.6 nM | 108 nM | – | COc1ccccc1Oc1c(NS(=O)(=O)NCc2ccc(F)cc2)nc(-c2ncccn2)nc1OCCOc1ncc(Br)cn1 [Example 142] | –
27 | 0.34 nM | 611 nM | – | CCCCNS(=O)(=O)Nc1ncnc(OCCOc2ncc(SC)cn2)c1-c1ccc(Cl)cc1 [Example 118] | –
28 | 22 nM | 62 nM | – | COc1ccccc1CNS(=O)(=O)Nc1nc(-c2ncccn2)nc(OCCOc2ncccn2)c1Oc1ccccc1OC [Example 175] | –
29 | 23 nM | 936 nM | – | C#CCOc1nc(-c2ccnc(-c3nnn[nH]3)c2)nc(NS(=O)(=O)NCc2ccccc2)c1Oc1ccccc1OC [Example 210, Benzylsulfamic acid [5-(2-methoxy-phenoxy)-6-prop-2-ynyloxy-2-[2-(1H-tetrazol-5-yl)-pyridin-4-yl]-pyrimidin-4-yl]-amide] | –
30 | 9.5 nM | > 1000 nM | – | COc1cnc(OCCOc2ncnc(NS(=O)(=O)N(C)Cc3ccccc3)c2-c2ccc(Cl)cc2)nc1 [Example 194] | –
31 | 17 nM | > 1000 nM | – | COc1ccccc1Oc1c(NS(=O)(=O)NCc2ccccc2)nc(-c2ccnc(-c3nnn[nH]3)c2)nc1OC [Example 207, benzylsulfamic acid [6-methoxy-5-(2-methoxy-phenoxy)-2-[2-(1H-tetrazol-5-yl)-pyridin-4-yl]-pyrimidin-4-yl]-amide] | –
32 | 3.6 nM | > 1000 nM | – | CN(Cc1ccccc1)S(=O)(=O)Nc1ncnc(OCCOc2ncc(Br)cn2)c1-c1ccc(Cl)cc1 [Example 193] | –
33 | 0.45 nM | 518 nM | – | CCCCNS(=O)(=O)Nc1ncnc(OCCOc2ncc(Br)cn2)c1-c1ccc(Cl)cc1 [Example 117] | –
34 | 3.2 nM | 233 nM | – | COc1cnc(OCCOc2nc(-c3ccncc3)nc(NS(=O)(=O)NCC3CCCCC3)c2Oc2ccccc2OC)nc1 [Example 131] | –
